Results from patent US4265829A, “Halogenated-naphthalenetriyltris(sulfonylimino)-aryl disulfonic acids and salts thereof” (American Cyanamid Company, priority 1979, dated 1981).
Counter-ions that a name gives are not always drawn.

Tests used:
activated human C1 = activated human C1 (Homo sapiens, UniProt P09871); experiment: Test Code 026 (C1 inhibitor); assay type: biochemical; details: serial twofold dilution assay; higher well number indicates higher activity
Description: (§1) An active inhibitor protects C2 from C1 and C4; (ii) Test Code 035 (C3-C9 inhibitor)--This test determines the ability of the late components of human complement (C3-C9) to lyse EAC 142 in the presence of appropriate dilutions of the test compound. An active inhibitor protects EAC 142 from lysis by human C3-C9; (iii) Test Code 036 (C-Shunt inhibitor)--In this test human erythrocytes rendered fragile are lysed in autologous serum via the shunt pathway activated by cobra venom factor in the presence of appropriate dilutions of the test compound. Inhibition of the shunt pathway results in failure of lysis; (iv) Forssman Vasculitis Test--Here, the well known complement dependent lesion, Forssman vasculitis, is produced in guinea pigs by intradermal injection of rabbit anti-Forssman antiserum. […] Percent inhibition is calculated by comparison with simultaneous controls. […]

[1] = tested on: late components of human complement (C3-C9); experiment: Test Code 035 (C3-C9 inhibitor); assay type: biochemical; details: serial twofold dilution assay; lysis of EAC 142; higher well number indicates higher activity
Description: as §1

[2] = tested on: shunt pathway activated by cobra venom factor; experiment: Test Code 036 (C-Shunt inhibitor); assay type: cell-based; details: serial twofold dilution assay; human erythrocytes in autologous serum; higher well number indicates higher activity
Description: as §1

[3] = tested on: serum complement activity; experiment: Guinea Pig Intraperitoneal Test (GPIP); assay type: in vivo; details: 200 mg./kg. i.p.
Description: An active inhibitor protects C2 from C1 and C4; (ii) Test Code 035 (C3-C9 inhibitor)--This test determines the ability of the late components of human complement (C3-C9) to lyse EAC 142 in the presence of appropriate dilutions of the test compound. An active inhibitor protects EAC 142 from lysis by human C3-C9; (iii) Test Code 036 (C-Shunt inhibitor)--In this test human erythrocytes rendered fragile are lysed in autologous serum via the shunt pathway activated by cobra venom factor in the presence of appropriate dilutions of the test compound. Inhibition of the shunt pathway results in failure of lysis; (iv) Forssman Vasculitis Test--Here, the well known complement dependent lesion, Forssman vasculitis, is produced in guinea pigs by intradermal injection of rabbit anti-Forssman antiserum. The lesion is measured in terms of diameter, edema and hemorrhage and the extent to which a combined index of these is inhibited by prior intraperitoneal injection of the test compound at 200 mg./kg. is then reported, unless otherwise stated; (v) Forssman Shock Test--Lethal shock is produced in guinea pigs by an i.v. injection of anti-Forssman antiserum and the harmonic mean death time of treated guinea pigs is compared with that of simultaneous controls; (vi) Complement Level Reduction Test--In this test, the above dosed guinea pigs, or others, are bled for serum and the complement level is determined in undiluted serum by the capillary tube method of U.S. Pat. No. 3,876,376 and compared to undosed control guinea pigs; (vii) Cap 50 Test--Here, appropriate amounts of the test compound are added to a pool of guinea pig serum in vitro, after which the undiluted serum capillary tube assay referred to above is run. The concentration of compound inhibiting 50% is reported; (viii) Guinea Pig Intraperitoneal Test (GPIP)--Guinea pigs weighing about 300 g. are dosed intraperitoneally (i.p.) with 200 mg./kg. of the test compound dissolved in saline and adjusted to pH 7-8. […] Percent inhibition is calculated by comparison with simultaneous controls. […]

O=S(=O)(O)c1cc(NS(=O)(=O)c2cc(S(=O)(=O)Nc3cc(S(=O)(=O)O)cc(S(=O)(=O)O)c3)c3c(Cl)ccc(S(=O)(=O)Nc4cc(S(=O)(=O)O)cc(S(=O)(=O)O)c4)c3c2)cc(S(=O)(=O)O)c1 [5,5',5"-[(8-Chloro-1,3,5-napthalenetriyl)tris (sulfonylimino)]-tri-1,3-benzenedisulfonic acid, hexasodium salt]
Cl 026 Wells (activated human C1): +7 Wells | C-Late 035 Wells [1]: +1 Wells | Shunt Inhibition 036 Wells [2]: +5 Wells | In Vivo Activity (Guinea Pig) % Inhibition Intraperitoneal, 30 minutes ([3]; serum taken 30 minutes after injection): -67% | In Vivo Activity (Guinea Pig) % Inhibition Intraperitoneal, 60 minutes ([3]; serum taken 60 minutes after injection): -72% | In Vivo Activity (Guinea Pig) % Inhibition Intraperitoneal, 120 minutes ([3]; serum taken 120 minutes after injection): -81%
